Each compound was assayed on Plasmodium falciparum Dd2 asexual blood stage parasites (assay: microbe, parasite or virus in culture). Conditions: Plasmodium falciparum, DD2, Erythrocyte, 72 h; read-out: AC50.
Parameters: species or system Plasmodium falciparum Dd2 in human erythrocytes; single determination (one 11-point concentration-response curve)

Row | Structure (SMILES) | AC50
1 | Cc1ccc(NC(=O)c2cnc(-c3ccccc3)nc2-c2ccncc2)c(Br)c1 [NCGC00426434-01] | 9.44 µM
2 | COc1ccc(S(=O)(=O)N(C)C)cc1NC(C)C(=O)Nc1cccc(C#N)c1 (stereo not drawn) [MLS000761043-01] | 6.68 µM
3 | O=C(Nc1ccc(N2CCOCC2)c(Cl)c1)c1nc[nH]n1 [MLS000072688-01] | 9.44 µM
4 | OCC[n+]1ccc(/C=C/c2c[nH]c3ccccc23)cc1 [MLS000585200-01] | 2.99 µM
5 | COC1CCN(C(=O)C(C)(C)Oc2nn(CC3CC3)c3ccc(CN4CCCC4)cc23)CC1 [NCGC00419576-01] | 9.44 µM
6 | O=C(Nc1ccc(Cl)cc1)N1CCC2(CC1)CCN(Cc1cccs1)c1ccccc1O2 [NCGC00478210-01] | 8.41 µM
7 | Nc1nonc1-n1nnc(C(=O)N/N=C/c2ccc(Cl)cc2)c1-c1ccc2c(c1)OCO2 [MLS001142698-01] | 0.376 µM
8 | COc1cc(C#Cc2c(-c3cncn3C)n(C)c3ccc(-c4ccc(OC)c(OC)c4)cc23)cc(OC)c1 [MLS002391599-01] | 4.73 µM
9 | CCC(=O)N1CCc2cc(Br)cc(S(=O)(=O)C3(C(=O)OC)CC3)c21 [MLS000047144-01] | 3.76 µM
10 | Cc1cccc(-n2c(/C=C/c3c(C)[nH]c4ccccc34)nc3ccccc3c2=O)c1 [NCGC00098794-01] | 3.76 µM
11 | CC(=O)Nc1ccc(Nc2cc(C)nc(Nc3ccc(NC(C)=O)cc3)n2)cc1 [MLS001359830-01] | 3.35 µM
12 | CC(C)(C)c1ccc(-c2noc(-c3ncn4c3COC(c3ccc(F)cc3)C4)n2)cc1 (stereo not drawn) [NCGC00449976-01] | 15 µM
13 | O=c1cc(-c2cccnc2)oc2c(-c3ccccc3Oc3ccccc3)nccc12 [NCGC00416761-01] | 17.2 µM
14 | CCN(CC)CCC(c1ccc(N(C)C)cc1)c1c(O)cc(OC)cc1OC (stereo not drawn) [MLS000879508-01] | 3.35 µM
15 | COc1cc2nc(NCCc3cccc(C)c3)n3nc(-c4ccccc4)nc3c2cc1OC [NCGC00112859-01] | 0.841 µM
16 | CCOC(=O)c1nnn(-c2nonc2N)c1-c1ccc(OC)cc1 [MLS000043574-01] | 5.31 µM
17 | COc1ccc2cc1Nc1ccc(cc1)C[C@H](NC(=O)Cc1cccc(Cl)c1)C(=O)N(C)[C@H](C(=O)NCCOc1ccccc1)C2 [NCGC00410283-01] | 7.5 µM
18 | Oc1ccc(Cl)cc1CN1CCN(Cc2ccccc2)CC1 [MLS000530315-01] | 0.944 µM
19 | COc1ccc(CC(=O)N2CCC(Oc3ncccc3C(=O)N3CCCCC3)C2)cc1 (stereo not drawn) [NCGC00434230-01] | 9.44 µM
20 | CCOc1ccc(-c2cn3c(n2)sc2cc(C(=O)NC(C)C45CC6CC(CC(C6)C4)C5)ccc23)cc1 (stereo not drawn) [NCGC00113230-01] | 5.96 µM
21 | Cc1noc(C)c1-c1cc2c(cc(-c3ccccc3)n2C)c(-c2cccnc2)n1 [NCGC00417168-01] | 10.9 µM
22 | O=C1NC2(CCN(Cc3ccc(C(F)(F)F)cc3)CC2)COc2ccccc21 [NCGC00477447-01] | 8.41 µM
23 | COC(=O)c1nc2n(n1)C(c1ccc([N+](=O)[O-])cc1)C(C(=O)Nc1ccc(Cl)cc1)=C(C)N2 (stereo not drawn) [MLS000582454-01] | 5.31 µM
24 | CCCn1c(C)cnc1CC1CCN([S+](=O)([O-])c2ccc3c(c2)CCC3)C1 (stereo not drawn) [NCGC00464176-01] | 9.44 µM
25 | C#Cc1ccc(C(=O)Nc2ccc(N3CCC(C)CC3)c(C(N)=O)c2)cc1 [MLS000764680-01] | 6.68 µM
26 | Cc1ccc(C(=O)c2cc(C)sc2NC(=O)CN2CCN(C(=O)c3ccco3)CC2)cc1 [MLS000073677-01] | 7.5 µM

Row | Structure (SMILES) | AC50
27 | O=C(N[C@H](c1ccccn1)[C@H]1C[C@H](O)C1)c1cc(=O)n(-c2ccccc2)[nH]1 [NCGC00423856-01] | 9.44 µM
28 | CCc1cc(C(=O)OC)c(NC(=O)CN2CCN(C(=O)c3ccco3)CC2)s1 [MLS001034503-01] | 5.96 µM
29 | O=C(Nc1ccccc1C(F)(F)F)c1cc(-c2ccccc2O)on1 [MLS000087293-01] | 2.99 µM
30 | COc1cc(C2Nc3ccc4ccccc4c3C3=C2C(=O)CC(C)(C)C3)ccc1OC(C)C(=O)O (stereo not drawn) [MLS001197433-01] | 6.68 µM
31 | CCCCCCCNC(=O)C1(CC2CC(c3cccc(Br)c3)=NO2)CCN(C(=O)c2cc(OCC)c(OCC)c(OCC)c2)CC1 (stereo not drawn) [MLS001144006-01] | 10.6 µM
32 | COc1ccc(CN2C(=O)COC[C@@H]2[C@H](O)c2ccc(NC(=O)c3ccc(C(C)(C)C)cc3)cc2)cc1 [NCGC00392864-01] | 2.11 µM
33 | Cc1nc2sc(C(=O)Nc3ccc(F)cc3)c(N)c2c(-c2ccc(Br)cc2)c1C(=O)Nc1ccc(Cl)cc1 [NCGC00105115-01] | 8.41 µM
34 | COc1ccc(-c2csc3ncnc(N4CCN(S(=O)(=O)c5ccc(C(C)=O)cc5)CC4)c23)cc1 [MLS001160708-01] | 4.22 µM
35 | O=C(Cc1ccc(Cl)cc1)NCc1nnc2cc(-c3nc(C4CC4)no3)ccn12 [NCGC00457746-01] | 7.5 µM
36 | CCn1cc(CN2CC(Oc3ccc(-c4noc(-c5ccncc5)n4)cc3)C2)cn1 [NCGC00458017-01] | 13.3 µM
37 | COCCc1nn2c(=O)cc(COC(=O)C(c3ccccc3)c3ccccc3)nc2s1 [NCGC00129785-01] | 2.66 µM
38 | Oc1ccc(CN2CCCCC2)nc1-c1ccccc1 [MLS000031925-01] | 0.531 µM
39 | COCCNC(=O)c1ccc(OC2CCN(C/C=C/c3ccc(F)cc3)CC2)c(Cl)c1 [NCGC00426935-01] | 10.6 µM
40 | CCOC(=O)c1[nH]c(Cc2[nH]c(C(=O)OCC)c(C)c2CCC(=O)OC)c(CCC(=O)OC)c1C [MLS000111116-01] | 5.31 µM
41 | O=C(c1nnc(COc2ccc(OC(F)(F)F)cc2)n1-c1ccccc1)N1CCC[C@@H]1C(c1ccccc1)c1ccccc1 [NCGC00415795-01] | 8.41 µM
42 | Cn1cc(C(=O)NCCN2CCN(c3cccc(Cl)c3)CC2)c2c3ccccc3n(C)c2c1=O [MLS000086993-01] | 4.73 µM
43 | Cc1cc2cc(-c3c(C)noc3C)nc(N(C)CCN(C)C)c2o1 [NCGC00417474-01] | 12.2 µM
44 | Cc1ccc2oc(=O)n(CCOc3ccccc3C)c2c1 [MLS000708194-01] | 4.73 µM
45 | CC1(c2ccccc2)N(Cc2ccccc2)C(=O)OC12CCN(Cc1cccc(O)c1)CC2 (stereo not drawn) [NCGC00415604-01] | 8.41 µM
46 | COc1ccc(Nc2cc(C)nc3nc(C)nn23)cc1Cl [MLS000116613-01] | 16.8 µM
47 | CCN(CC)c1cc(C)c2cc(NC(=O)/C=C/c3cc(OC)c(OC)c(OC)c3)ccc2n1 [NCGC00104274-01] | 4.73 µM
48 | COc1ccc2cc1Nc1ccc(cc1)C[C@H](NCc1cccc(C(=O)O)c1)C(=O)N(C)[C@H](C(=O)Nc1ccccc1OCc1ccccc1)C2 [NCGC00410264-01] | 4.73 µM
49 | CC(C)CNC(=O)C(C)(C)Oc1nn(CC2CC2)c2ccc(CN3CCCC3)cc12 [NCGC00419534-01] | 19.3 µM
50 | O=C1N=C(NC2CCCCC2)C2(CCN(Cc3ccccc3)C2)N1c1cc(F)cc(F)c1 (stereo not drawn) [NCGC00374188-01] | 4.22 µM
51 | COc1ccc2c(c1)C=C([C@@H]1C[C@H]3CN(c4ccccc4)C(=O)[C@]34CCCN14)CO2 [MLS000734809-01] | 0.944 µM
52 | CC(=O)Nc1ccc2nnc(-c3ccc(C(=O)N4CCCCCC4)cc3)n2c1 [NCGC00429830-01] | 8.41 µM

Row | Structure (SMILES) | AC50
53 | CCOC(=O)c1[nH]c(C)c(CCC(=O)N2CCN(c3cc(C)ccc3C)CC2)c1C [NCGC00134586-01] | 1.33 µM
54 | COc1ccc(-c2cc(-c3cccc(NC(C)=O)c3)cn3cncc23)cn1 [NCGC00412201-01] | 21.7 µM
55 | c1ccc(Nc2cc3c(cn2)CN(Cc2ccsc2)CCN3)cc1 [NCGC00411091-01] | 13.7 µM
56 | CC(=O)Oc1c(-c2ccc(NC(=O)CC(C)C)cc2)c(-c2ccc(F)cc2)nn1-c1ccc(F)cc1 [NCGC00473192-01] | 13.3 µM
57 | O=C(Nc1ccc(F)cc1)N1CCOc2ccc(CN3CCc4ccccc4C3)cc2C1 [NCGC00471233-01] | 8.41 µM
58 | COc1ccc(-n2nc(C(=O)NCCc3ccc(OC)c(OC)c3)c3c4ccccc4n(C)c3c2=O)cc1Cl [NCGC00108876-01] | 2.99 µM
59 | CCOC(=O)c1ccc2c(c1)N(C(CC)C(=O)Nc1ccccc1OC)C(=O)c1ccccc1S2 (stereo not drawn) [NCGC00132065-01] | 9.44 µM
60 | CCOc1ccc2[nH]c3c(NCCN(C)C)ncnc3c2c1 [MLS001214990-01] | 16.8 µM
61 | COc1ncc(-c2cc(C(=O)NCc3c(C)cc(C)[nH]c3=O)c3c(c2)N(C(C)C)CCO3)cn1 [NCGC00416983-01] | 9.44 µM
62 | O=c1nc(C2CCCN(CC3CCCCC3)C2)[nH]n1-c1ccc(Cl)cc1 (stereo not drawn) [NCGC00477729-01] | 6.68 µM
63 | CCOc1ccc(CN2C(=O)c3ccccc3Sc3ccc(C(=O)N4CCN(C)CC4)cc32)cc1 [NCGC00108216-01] | 0.299 µM
64 | Cc1ccc2c(c1)c1c3n2CCCN(Cc2ccccc2)C3CCC1 (stereo not drawn) [MLS000525489-01] | 4.22 µM
65 | O=C(C[n+]1c2n(c3ccccc31)CC(O)CS2)c1ccccc1 (stereo not drawn) [MLS000687555-01] | 10.6 µM
66 | CCOc1ccccc1NC(=O)C1CCN([S+](=O)([O-])c2c(C)noc2/C=C/c2ccco2)CC1 [NCGC00109315-01] | 15 µM
67 | Cc1ccc(-c2nnc(Nc3ccc(O)cc3)c3ccccc23)cc1[S+](=O)([O-])N1CCN(C)CC1 [NCGC00099994-01] | 6.68 µM
68 | CNc1cc(C)nc(-n2nc(C)cc2C)n1 [MLS000079642-01] | 8.41 µM
69 | CCCn1c(=N)c(C(=O)NC2CCCC2)cc2c(=O)n3cccc(C)c3nc21 [NCGC00100358-01] | 5.96 µM
70 | Oc1ccc(-c2nc(C3CC3)nc3c2CN(CC2CCCCC2)CC3)cc1 [NCGC00480438-01] | 6.68 µM
71 | COc1cccc(CN2CCCC(N3CCN(c4cccc(C(F)(F)F)c4)CC3)C2)c1O (stereo not drawn) [NCGC00428830-01] | 0.841 µM
72 | CCOC(=O)c1c(C)oc2nc(C)nc(Nc3ccc(CC)cc3)c12 [NCGC00126813-01] | 7.5 µM
73 | COc1ccc2c(CNCc3ccccc3OC)c(C(=O)O)n(Cc3ccc(F)cc3Cl)c2c1 [NCGC00122363-01] | 15 µM
74 | OC(CNC1CCCc2ccccc21)COc1c(Cl)cccc1Cl (stereo not drawn) [MLS000334339-01] | 1.68 µM
75 | CN1CCN(c2ccc(-c3noc([C@@H]4CCCN4C4CCCCC4)n3)cn2)CC1 [NCGC00392835-01] | 19.3 µM
76 | CCCc1nn2c(=O)cc(COC(=O)c3cccc(NC(=O)COc4ccccc4C)c3)nc2s1 [NCGC00130805-01] | 13.3 µM
77 | COc1cccc(CN2CCc3c(cc(C(=O)NCc4ccccn4)n3C)C2)c1 [NCGC00430584-01] | 15 µM
78 | CC1(c2ccccn2)Nc2ccccc2-c2nc3ccccc3n21 (stereo not drawn) [MLS000039430-01] | 5.31 µM
